Source: patent US11807625B2, “Capsid inhibitors for the prevention of HIV” (Gilead Sciences, Inc., priority 2019, dated 2023)
Where two headings read alike, the source gives them in different places.

Test: PK of compound of Formula (Ia) after single subcutaneous dose of solution formulations in beagle dogs
Format: in vivo
Method: Formulations containing the compound of Formula (Ia), or a pharmaceutically acceptable salt thereof, were prepared as solutions and optionally administered subcutaneously or intramuscularly to rats, rabbits, and/or dogs.
(§1) A solution of about 400 mg/mL of the compound of Formula (Ia) having 17.00 w/w % water, 36.40 w/w % PEG 300, 35.20 w/w % of a sodium salt of a compound of Formula (Ia), 5.00 w/w % ethanol, and 6.40 w/w % poloxamer 188 was prepared. The solution was administered subcutaneously to male beagle dogs at a dose level of about 12 mg/kg and male Wistar Han rats at a dose level of about 50 mg/kg. The pharmacokinetic profiles were determined, and the results for dogs are summarized in Table and Table, while the results for rats are summarized in Table and Table below.
as §1, with “500” for “400”, “14.06” for “17.00”, “30.12” for “36.40”
A solution of about 300 mg/mL of the compound of Formula (Ia) having 23.33 w/w % water, 48.99 w/w % PEG 300, 26.47 w/w % of a sodium salt of a compound of Formula (Ia), and 1.21 w/w % poloxamer 188 was prepared. The solution was administered subcutaneously to male beagle dogs at a dose level of about 6 mg/kg and male Wistar Han rats at a dose level of about 50 mg/kg. The pharmacokinetic profiles were determined, and the results for dogs are summarized in Table and Table, while the results for rats are summarized in Table and Table below.
as §1, with “18.80” for “17.00”, “40.25” for “36.40”, “34.38” for “35.20”, “1.57” for “6.40”
as §1, with “500” for “400”, “16.29” for “17.00”, “34.88” for “36.40”, “41.92” for “35.20”, “1.91” for “6.40”
as §1, with “20.90” for “17.00”, “44.72” for “36.40”, “and 34.38” for “35.20”, “(Ia)” for “(Ia), 5.00 w/w % ethanol, and 6.40 w/w % poloxamer 188”
A solution of about 400 mg/mL of the compound of Formula (Ia) having 19.90 w/w % water, 42.59 w/w % PEG 300, 34.38 w/w % of a sodium salt of a compound of Formula (Ia), and 3.13 w/w % poloxamer 188 was prepared. The solution was administered subcutaneously to male beagle dogs at a dose level of about 12 mg/kg and male Wistar Han rats at a dose level of about 50 mg/kg. […]

[1] = male, beagle, dog, plasma, sc, 6 mg/kg, individual dogs, SC 6 mg/kg, solution V, 300 mg/mL
[2] = male, beagle, dog, plasma, sc, 6 mg/kg, mean, n = 3 dogs, SC 6 mg/kg, solution V, 300 mg/mL
[3] = male, beagle, dog, plasma, sc, 6 mg/kg, mean ± SD, n = 3 dogs, SC 6 mg/kg, solution V, 300 mg/mL

Plasma concentration (beagle dogs, SC 12 mg/kg, 400 mg/mL solution W (5.00% ethanol, 1.57% poloxamer 188), 1.00 h, animals #1-#3): BLQ | concentration at 3 h [1]: 2.26 nM | concentration at 3 h (male, beagle, dog, plasma, sc, 6 mg/kg, mean (dog #2 BLQ), SC 6 mg/kg, solution V, 300 mg/mL): 2.75 nM | concentration at 8 h [1]: 8.26 nM | concentration at 8 h [2]: 10.4 nM | concentration at 24 h [1]: 22.3 nM | concentration at 24 h [2]: 23.5 nM | concentration at 48 h [1]: 37.1 nM | concentration at 48 h [2]: 31.5 nM | concentration at 72 h [1]: 32.8 nM | concentration at 72 h [2]: 31.3 nM | concentration at 96 h [1]: 39.5 nM | concentration at 96 h [2]: 32.6 nM | concentration at 168 h [1]: 41.8 nM | concentration at 168 h [2]: 39.2 nM | concentration at 336 h [1]: 99.2 nM | concentration at 336 h [2]: 129 nM | concentration at 504 h [1]: 122 nM | concentration at 504 h [2]: 151 nM | concentration at 672 h [1]: 95.3 nM | concentration at 672 h [2]: 122 nM | concentration at 840 h [1]: 53.3 nM | concentration at 840 h [2]: 58.9 nM | concentration at 1008 h [1]: 29.1 nM | concentration at 1008 h [2]: 30.2 nM | concentration at 1344 h [1]: 26.9 nM | concentration at 1344 h [2]: 23.8 nM | concentration at 1680 h [1]: 13.7 nM | concentration at 1680 h [2]: 12.3 nM | concentration at 2016 h (male, beagle, dog, plasma, sc, 6 mg/kg, 2016 h, mean, n = 3 dogs, SC 6 mg/kg, solution V, 300 mg/mL): 8.5 nM | concentration at 2352 h [1]: 4.5 nM | concentration at 2352 h [2]: 4.7 nM | concentration at 2688 h [1]: 2.1 nM | concentration at 2688 h [2]: 2.7 nM | concentration at 3024 h [1]: 2.5 nM | concentration at 3024 h [2]: 2.3 nM | concentration at 3360 h [1]: 1.5 nM | concentration at 3360 h [2]: 1.3 nM | AUC(0-inf) [3]: 113 ± 12 µM·h | Cmax [3]: 155 ± 30 nM | Tmax [3]: 18.7 ± 4.04 days | half-life [3]: 25.5 days | AUC(0-t) (male, beagle, dog, plasma, sc, 6 mg/kg, mean ± SD, n = 3 dogs, SC 6 mg/kg, solution V, 300 mg/mL, read-out: AUC0-24 h): 0.304 ± 0.028 µM·h | AUC(0-t) (male, beagle, dog, plasma, sc, 6 mg/kg, mean ± SD, n = 3 dogs, SC 6 mg/kg, solution V, 300 mg/mL, read-out: AUC0-168 h): 5.07 ± 0.5 µM·h | AUC(0-t) (male, beagle, dog, plasma, sc, 6 mg/kg, mean ± SD, n = 3 dogs, SC 6 mg/kg, solution V, 300 mg/mL, read-out: AUC0-672 h): 65.6 ± 9.9 µM·h | AUC(0-t) (male, beagle, dog, plasma, sc, 6 mg/kg, mean ± SD, n = 3 dogs, SC 6 mg/kg, solution V, 300 mg/mL, read-out: AUC0-1344 h): 97.4 ± 12.7 µM·h | AUC(0-t) (male, beagle, dog, plasma, sc, 6 mg/kg, mean ± SD, n = 3 dogs, SC 6 mg/kg, solution V, 300 mg/mL, read-out: AUC0-1680 h): 103 ± 12 µM·h
SMILES: CC(C)(C#Cc1ccc(-c2ccc(Cl)c3c(NS(C)(=O)=O)nn(CC(F)(F)F)c23)c([C@H](Cc2cc(F)cc(F)c2)NC(=O)Cn2nc(C(F)(F)F)c3c2C(F)(F)[C@@H]2C[C@H]32)n1)S(C)(=O)=O [compound of Formula (Ia)]
